Patent US9096598B2 (Merck Sharp & Dohme Corp., priority 2011, dated 2015)

Assays:
JAK2 = biological target: T1, JAK2 (Homo sapiens, UniProt O60674); experiment: Jak Biochemical HTRF Assay (JAK2); settings: recombinant purified GST-tagged catalytic domain, [ATP] 8.5 μM, values given as range classes
T1 construct: recombinant purified GST-tagged catalytic domain for each enzyme; purchased Invitrogen M4290
Procedure: (§1) Jak Biochemical HTRF Assay Protocol
(§2) The ability of compounds to inhibit the activity of JAK1, JAK2, JAK3, and Tyk2 was measured using a recombinant purified GST-tagged catalytic domain for each enzyme (Invitrogen JAK1 #M4290, JAK2 #M4290, JAK3 #M4290, Tyk2 #M4290) in an HTRF format biochemical assay. The reactions employed a common peptide substrate, LCB-EQEDEPEGDYFEWLW-NH2 (in-house). The basic assay protocol is as follows: First, 250 nL of diluted compounds in DMSO were dispensed into the wells of a dry 384-well Black plate (Greiner #781076) using a Labcyte Echo 555 acoustic dispenser. Subsequent reagent additions employed an Agilent Bravo. Next, 18 μL of 1.11× enzyme and 1.11× substrate in 1× assay buffer (Invitrogen kinase buffer #PV3189, 2 mM DTT, 0.05% BSA) were added to the wells and shaken and then preincubated for 30 minutes at room temperature to allow compound binding to equilibrate. After equilibration, 2 μL of 10×ATP in 1× assay buffer was added to initiate the kinase reaction and the plates were shaken and then incubated at room temperature for 120 minutes. At the end of the incubation, 20 μL of 2× stop buffer (streptavidin-Dylight 650 (Thermo #84547B/100 mL), Eu-tagged pY20 antibody (Perkin Elmer #AD0067), EDTA, HEPES, and Triton) was added to quench the reaction. Plates were shaken and centrifuged and then incubated 60 minutes at room temperature and then read on a Perkin Elmer Envision (λex=337 nm, λem=665 and 615 nm, TRF delay time=20 μs). HTRF signal=10,000*665 nm reading/615 nm reading. After normalization to untreated controls, the percent inhibition of the HTRF signal at each compound concentration was calculated. The plot of percent inhibition versus the log of compound concentration was fit with a 4-parameter dose response equation to calculate IC50 values.
(§3) Final reaction conditions were:
(§4) Examples of the instant invention were evaluated in JAK2 and JAK3 in vitro binding assays. Table 13 tabulates the biological data disclosed for the instant invention as a range of JAK2 and JAK3 IC50 values (A: IC50≦10 nM; B: 10 nM>IC50≦500 nM C: IC50>500 nM).

JAK3 = biological target: T2, JAK3 (Homo sapiens, UniProt P52333); experiment: Jak Biochemical HTRF Assay (JAK3); settings: recombinant purified GST-tagged catalytic domain, [ATP] 2.9 μM, values given as range classes
T2 construct: recombinant purified GST-tagged catalytic domain for each enzyme; purchased Invitrogen M4290
T2 sequence (P52333 822-1111 limits assumed): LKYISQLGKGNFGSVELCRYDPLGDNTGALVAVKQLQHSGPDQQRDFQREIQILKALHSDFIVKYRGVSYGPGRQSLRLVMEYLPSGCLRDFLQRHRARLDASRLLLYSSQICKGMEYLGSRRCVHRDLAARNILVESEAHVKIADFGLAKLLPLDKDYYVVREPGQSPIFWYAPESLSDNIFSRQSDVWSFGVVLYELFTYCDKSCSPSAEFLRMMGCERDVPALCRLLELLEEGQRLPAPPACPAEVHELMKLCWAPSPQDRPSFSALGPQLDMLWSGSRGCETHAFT
Procedure: as §1, §2, §3, §4

T1 sequence (O60674 849-1124 limits assumed): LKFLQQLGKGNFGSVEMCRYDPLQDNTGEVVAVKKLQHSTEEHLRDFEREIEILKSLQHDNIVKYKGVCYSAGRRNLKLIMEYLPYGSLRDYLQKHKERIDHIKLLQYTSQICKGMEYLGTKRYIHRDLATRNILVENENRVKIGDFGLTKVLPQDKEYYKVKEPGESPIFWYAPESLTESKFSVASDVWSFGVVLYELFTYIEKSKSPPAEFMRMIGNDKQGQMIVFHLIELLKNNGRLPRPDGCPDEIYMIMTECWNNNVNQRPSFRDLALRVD

Row | Compound | IC50 (JAK2) | IC50 (JAK3)
1 | CC(C)NC(=O)Nc1cnc2[nH]cc(-c3cncc(N[C@H](C(=O)NCC(F)(F)F)C(C)C)c3)c2c1 [Example 6-1, N^2-(5-{5-[(propan-2-ylcarbamoyl)amino]-1H-pyrrolo[2,3-b]pyridin-3-yl}pyridin-3-yl)-N-(2,2,2-trifluoroethyl)valinamide] | 10 to 500 nM | ≤ 10 nM
2 | CC(C)=CC(=O)NCc1cnc2[nH]cc(-c3cncc(N[C@H](C(=O)NCC(F)(F)F)C(C)C)c3)c2c1 [Example 10-8, N~2~-[5-(5-{[(3-methylbut-2-enoyl)amino]methyl}-1H-pyrrolo[2,3-b]pyridin-3-yl)pyridin-3-yl]-N-(2,2,2-trifluoroethyl)valinamide] | 10 to 500 nM | 10 to 500 nM
3 | CC(C)(O)[C@@H](Nc1cncc(-c2c[nH]c3ncc(Cl)cc23)c1)C(=O)NCC(F)(F)F [Example 1-49, N~2~-[5-(5-chloro-1H-pyrrolo[2,3-b]pyridin-3-yl)pyridin-3-yl]-3-hydroxy-N-(2,2,2-trifluoroethyl)-D-valinamide] | 10 to 500 nM | ≤ 10 nM
4 | CNC(=O)Nc1cnc2[nH]cc(-c3cncc(N[C@H](C(=O)NCC(F)(F)F)C(C)C)c3)c2c1 [Example 6-5, N~2~-(5-{5-[(methylcarbamoyl)amino]-1H-pyrrolo[2,3-b]pyridin-3-yl}pyridin-3-yl)-N-(2,2,2-trifluoroethyl)valinamide] | 10 to 500 nM | ≤ 10 nM
5 | CCC(=O)Nc1cnc2[nH]cc(-c3cncc(NC(C(=O)NCC(F)(F)F)C(C)C)c3)c2c1 (stereo not drawn) [Example 5-6, N^2-{5-[5-(propanoylamino)-1H-pyrrolo[2,3-b]pyridin-7-ium-3-yl]pyridin-3-yl}-N-(2,2,2-trifluoroethyl)valinamide] | 10 to 500 nM | ≤ 10 nM
6 | CC(C)C(Nc1cncc(-c2c[nH]c3ncc(OCC4CCN(C)CC4)cc23)c1)C(=O)NCC(F)(F)F (stereo not drawn) [Example 2-18, N~2~-(5-{5-[(1-methylpiperidin-4-yl)methoxy]-1H-pyrrolo[2,3-b]ppidin-3-yl}pyridin-3-yl)-N-(2,2,2-trifluoroethyl)valinamide] | 10 to 500 nM | ≤ 10 nM
7 | CC(C)[C@H](Nc1cncc(-c2c[nH]c3ncc(NC(=O)Nc4ccc(F)cc4F)cc23)c1)C(=O)NCC(F)(F)F [Example 6-3, N~2~-[5-(5-{[(2,4-difluorophenyl)carbamoyl]amino}-1H-pyrrolo[2,3-b]pyridin-3-yl)pyridin-3-yl]-N-(2,2,2-trifluoroethyl)valinamide] | 10 to 500 nM | ≤ 10 nM
8 | CC(C)[C@@H](Nc1cncc(-c2c[nH]c3ncc(Cl)cc23)c1)C(=O)NCC(F)(F)F [Example 1-51, N~2~-[5-(5-chloro-1H-pyrrolo[2,3-b]pyridin-3-yl)pyridin-3-yl]-N-(2,2,2-trifluoroethyl)-D-valinamide] | ≤ 10 nM | ≤ 10 nM
9 | CC(C)[C@H](Nc1cncc(-c2c[nH]c3ncc(OCCc4ccccn4)cc23)c1)C(=O)NCC(F)(F)F [Example 2-12, N~2~-{5-[5-(2-pyridin-2-ylethoxy)-1H-pyrrolo[2,3-b]pyridin-3-yl]pyridin-3-yl}-N-(2,2,2-trifluoroethyl)valinamide] | 10 to 500 nM | ≤ 10 nM
10 | CC(C)(Nc1cncc(-c2c[nH]c3ncc(C#N)cc23)c1)C(=O)NCC(F)(F)F [Example 1-44, N~2~-[5-(5-cyano-1H-pyrrolo[2,3-b]pyridin-3-yl)pyridin-3-yl]-2-methyl-N-(2,2,2-trifluoroethyl)alaninamide] | 10 to 500 nM | ≤ 10 nM
11 | CC(C)[C@@H](Nc1cnnc(-c2c[nH]c3ncc(Cl)cc23)n1)C(=O)NCC(F)(F)F [Example 1-3, N~2~-[3-(5-chloro-1H-pyrrolo[2,3-b]pyridin-3-yl)-1,2,4-triazin-5-yl]-N-(2,2,2-trifluoroethyl)-D-valinamide] | 10 to 500 nM | ≤ 10 nM
12 | CC(C)[C@H](Nc1cncc(-c2c[nH]c3ncc(OCCN4CCOCC4)cc23)c1)C(=O)NCC(F)(F)F [Example 2-15, N~2~-{5-[5-(2-morpholin-4-ylethoxy)-1H-pyrrolo[2,3-b]pyridin-3-yl]pyridin-3-yl}-N-(2,2,2-trifluoroethyl)valinamide] | 10 to 500 nM | ≤ 10 nM
13 | CC(C)C(Nc1cncc(-c2c[nH]c3ncc(O)cc23)c1)C(=O)NCC(F)(F)F (stereo not drawn) [Example 2-1, 2-{[5-(5-hydroxy-1H-pyrrolo[2,3-b]pyridin-3-yl)pyridin-3-yl]amino}-3-methyl-N-(2,2,2-trifluoroethyl)butanamide] | 10 to 500 nM | ≤ 10 nM
14 | CC(C)[C@@H](Nc1cncc(-c2c[nH]c3ncc(C(=O)NC4CCOCC4)cc23)c1)C(=O)NCC(F)(F)F [Example 3-5, 3-[5-({(1R)-2-methyl-1-[(2,2,2-trifluoroethyl)carbamoyl]propyl}amino)pyridin-3-yl]-N-(tetrahydro-2H-pyran-4-yl)-1H-pyrrolo[2,3-b]pyridine-5-carboxamide] | ≤ 10 nM | ≤ 10 nM
15 | CC(C)[C@@H](Nc1cnnc(-c2c[nH]c3ncc(C(N)=O)cc23)n1)C(=O)NCC(F)(F)F [Example 1-18, 3-[5-({(1R)-2-methyl-1-[(2,2,2-trifluoroethyl)carbamoyl]propyl}amino)-1,2,4-triazin-3-yl]-1H-pyrrolo[2,3-b]pyridine-5-carboxamide] | 10 to 500 nM | ≤ 10 nM
16 | CC(C)(Nc1cnnc(-c2c[nH]c3ncc(C(N)=O)cc23)n1)C(=O)NCC(F)(F)F [Example 1-13, 3-[5-({1,1-dimethyl-2-oxo-2-[(2,2,2-trifluoroethyl)amino]ethyl}amino)-1,2,4-triazin-3-yl]-1H-pyrrolo[2,3-b]pyridine-5-carboxamide] | 10 to 500 nM | ≤ 10 nM
17 | CC(C)C(Nc1cncc(-c2c[nH]c3ncc(S(N)(=O)=O)cc23)c1)C(=O)NCC(F)(F)F (stereo not drawn) [Example 4-1, 3-Methyl-2-(5-(5-sulfamoyl-1H-pyrrolo[2,3-b]pyridin-3-yl)pyridin-3-ylamino)-N-(2,2,2-trifluoroethyl)butanamide] | 10 to 500 nM | ≤ 10 nM
18 | C[C@@H](Nc1cncc(-c2c[nH]c3ncc(Cl)c(F)c23)c1)C(=O)NCC(F)(F)F [Example 1-36, N~2~-[5-(5-chloro-4-fluoro-1H-pyrrolo[2,3-b]pyridin-3-yl)pyridin-3-yl]-N-(2,2,2-trifluoroethyl)-D-alaninamide] | > 500 nM | 10 to 500 nM
19 | C[C@H](Nc1cc(-c2c[nH]c3ncc(Cl)cc23)cnc1F)C(=O)NCC(F)(F)F [Example 1-39, N~2~-[5-(5-chloro-1H-pyrrolo[2,3-b]pyridin-3-yl)-2-fluoropyridin-3-yl]-N-(2,2,2-trifluoroethyl)alaninamide] | 10 to 500 nM | ≤ 10 nM
20 | CC(C)[C@@H](Nc1cncc(-c2c[nH]c3ncc(C(=O)N(C)C)cc23)c1)C(=O)NCC(F)(F)F [Example 3-1, (R)—N,N-dimethyl-3-(5-(3-methyl-1-oxo-1-(2,2,2-trifluoroethylamino)butan-2-ylamino)pyridin-3-yl)-1H-pyrrolo[2,3-b]pyridine-5-carboxamide] | > 500 nM | 10 to 500 nM
21 | C[C@@H](Nc1cncc(-c2c[nH]c3ncc(C(N)=O)cc23)c1)C(=O)NCC(F)(F)F [Example 1-46, 3-[5-({(1R)-1-methyl-2-oxo-2-[(2,2,2-trifluoroethyl)amino]ethyl}amino)pyridin-3-yl]-1H-pyrrolo[2,3-b]pyridine-5-carboxamide] | 10 to 500 nM | ≤ 10 nM
